According to PubChem BioAssay AID330 (DTP/NCI, 2004):
Inconclusive results and toxic doses are left out. How the source made its calls: active means survival T/C of 150% or more; inactive means T/C below 125% in these data.

Test system: P388 leukemia ip, CD2F1 mice, survival T/C
Experiment: NCI In Vivo Anticancer Drug Screen. Data for tumor model P388 Leukemia (intraperitoneal) in CD2F1 (CDF1) mice
Conditions: endpoint: median survival time, higher = longer survival
How it was run: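 Mice carrying the transplanted tumor received test compound or vehicle. Survival was recorded in each group, and the value is the treated-group measurement divided by that of the vehicle-treated control group.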

[1] = dose: 60.0 mg/kg/injection, schedule: Q01DX005 (ip), vehicle: saline with Tween-80
[2] = dose: 120.0 mg/kg/injection, schedule: Q01DX005 (ip), vehicle: saline with Tween-80
[3] = dose: 240.0 mg/kg/injection, schedule: Q01DX005 (ip), vehicle: saline with Tween-80

Measured: T/C

N/C=N/OCc1ccccc1
inactive: dose: 50.0 mg/kg/injection, schedule: Q01DX005 (ip), vehicle: saline 101 % of control | dose: 100.0 mg/kg/injection, schedule: Q01DX005 (ip), vehicle: saline 104 % of control | dose: 200.0 mg/kg/injection, schedule: Q01DX005 (ip), vehicle: saline 105 % of control

CNC1CCCc2c(O)cccc21 (configuration not stated)
inactive: dose: 50.0 mg/kg/injection, schedule: Q04DX003 (ip), vehicle: Klucel (hydroxypropylcellulose) (HPC) 99 % of control | dose: 100.0 mg/kg/injection, schedule: Q04DX003 (ip), vehicle: Klucel (hydroxypropylcellulose) (HPC) 101 % of control

CCCCCC(CN(C)C)C(=O)/C=C/c1ccccc1 (configuration not stated)
inactive: dose: 12.5 mg/kg/injection, schedule: Q01DX009 (ip), vehicle: saline 102 % of control | dose: 25.0 mg/kg/injection, schedule: Q01DX009 (ip), vehicle: saline 94 % of control | dose: 50.0 mg/kg/injection, schedule: Q01DX009 (ip), vehicle: saline 104 % of control | dose: 100.0 mg/kg/injection, schedule: Q01DX009 (ip), vehicle: saline 105 % of control

Cc1ccc(C(=O)/C=C/c2ccccc2)cc1
inactive: dose: 12.5 mg/kg/injection, schedule: Q01DX009 (ip), vehicle: water 94 % of control | dose: 25.0 mg/kg/injection, schedule: Q01DX009 (ip), vehicle: saline with Tween-80 92 % of control | dose: 25.0 mg/kg/injection, schedule: Q01DX009 (ip), vehicle: water 95 % of control | dose: 50.0 mg/kg/injection, schedule: Q01DX009 (ip), vehicle: saline with Tween-80 108 % of control | dose: 50.0 mg/kg/injection, schedule: Q01DX009 (ip), vehicle: water 99 % of control | dose: 100.0 mg/kg/injection, schedule: Q01DX009 (ip), vehicle: saline with Tween-80 102 % of control | dose: 100.0 mg/kg/injection, schedule: Q01DX009 (ip), vehicle: water 104 % of control | dose: 200.0 mg/kg/injection, schedule: Q01DX009 (ip), vehicle: saline with Tween-80 109 % of control | dose: 200.0 mg/kg/injection, schedule: Q01DX009 (ip), vehicle: water 96 % of control

NC(=O)CCCCCOc1ccc(OC2OC(CO)C(O)C(O)C2O)cc1 (configuration not stated)
inactive: dose: 100.0 mg/kg/injection, schedule: Q04DX002 (ip), vehicle: saline with Tween-80 100 % of control | dose: 200.0 mg/kg/injection, schedule: Q04DX002 (ip), vehicle: saline with Tween-80 102 % of control | dose: 400.0 mg/kg/injection, schedule: Q04DX002 (ip), vehicle: saline with Tween-80 104 % of control

[S-]c1n[n+](-c2ccccc2)no1
inactive: dose: 6.25 mg/kg/injection, schedule: Q01DX009 (ip), vehicle: distilled water + Tween-80 102 % of control | dose: 12.5 mg/kg/injection, schedule: Q01DX009 (ip), vehicle: distilled water + Tween-80 88 % of control

COc1ccc(-c2c(N)cnc(C(=O)O)c2C)c(OCc2ccccc2)c1OC
inactive: dose: 12.5 mg/kg/injection, schedule: Q01DX009 (ip), vehicle: other 108 % of control | dose: 25.0 mg/kg/injection, schedule: Q01DX009 (ip), vehicle: other 105 % of control | dose: 50.0 mg/kg/injection, schedule: Q01DX009 (ip), vehicle: other 102 % of control | dose: 100.0 mg/kg/injection, schedule: Q01DX009 (ip), vehicle: other 97 % of control | dose: 200.0 mg/kg/injection, schedule: Q01DX009 (ip), vehicle: other 99 % of control

COC(=O)/C=C1\C(=O)OC(C)(C)C1(C)C
inactive: dose: 50.0 mg/kg/injection, schedule: Q01DX009 (ip), vehicle: Klucel (hydroxypropylcellulose) (HPC) 111 % of control | dose: 100.0 mg/kg/injection, schedule: Q01DX009 (ip), vehicle: Klucel (hydroxypropylcellulose) (HPC) 100 % of control | dose: 200.0 mg/kg/injection, schedule: Q01DX009 (ip), vehicle: Klucel (hydroxypropylcellulose) (HPC) 103 % of control

COc1ccc(/C=C/C(CCN(C)C)=N/NC(=S)Nc2ccc(Br)cc2)cc1
inactive: dose: 100.0 mg/kg/injection, schedule: Q01DX001 (ip), vehicle: saline with Tween-80 101 % of control | dose: 200.0 mg/kg/injection, schedule: Q01DX001 (ip), vehicle: saline with Tween-80 96 % of control | dose: 400.0 mg/kg/injection, schedule: Q01DX001 (ip), vehicle: saline with Tween-80 105 % of control

CC(=O)O/C(C)=C1\CCn2c1nc1ccccc1c2=O
inactive: [1] 104 % of control | [2] 107 % of control | [3] 101 % of control

N#Cc1nc(CC(=O)c2ccccn2)c(CC(=O)c2ccccn2)nc1C#N
inactive: [1] 111 % of control | [2] 93 % of control

Cc1ncc(CO)c(CO)c1OCC(O)CN1CCN(c2ccc(F)cc2)CC1 (configuration not stated)
inactive: [1] 99 % of control | [2] 98 % of control | [3] 104 % of control
